{"source": "paper PMC4658336", "about": "“Identification and activity of inhibitors of the essential nematode-specific metalloprotease DPY-31” (Bioorganic & Medicinal Chemistry Letters, 2015)", "key": {"crayfish astacin": {"system": "crayfish astacin", "design": "method as in PMID 8756323", "conditions": "cited from earlier work"}, "[1]": {"target": "T1, recombinant DPY-31 from T. circumcincta (Teladorsagia circumcincta, UniProt A0A0C5PRQ1)", "T1 construct": "made in house; host or cells: E. coli (inferred from the codon optimisation and the pET28a(+) vector)", "T1 sequence (A0A0C5PRQ1 151-614)": "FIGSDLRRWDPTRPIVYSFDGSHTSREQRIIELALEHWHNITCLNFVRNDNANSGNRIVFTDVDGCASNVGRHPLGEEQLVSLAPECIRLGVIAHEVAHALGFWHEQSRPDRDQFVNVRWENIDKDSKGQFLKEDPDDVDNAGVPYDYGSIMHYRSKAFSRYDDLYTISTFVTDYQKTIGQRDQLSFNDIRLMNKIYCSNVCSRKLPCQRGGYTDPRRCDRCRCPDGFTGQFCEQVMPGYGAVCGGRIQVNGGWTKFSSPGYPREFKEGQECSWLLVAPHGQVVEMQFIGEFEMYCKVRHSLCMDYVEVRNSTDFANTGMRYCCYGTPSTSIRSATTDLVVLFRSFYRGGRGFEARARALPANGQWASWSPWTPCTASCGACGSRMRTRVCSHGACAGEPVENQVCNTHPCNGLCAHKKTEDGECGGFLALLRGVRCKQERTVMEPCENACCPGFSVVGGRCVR", "test": "rDPY-31 absorbance assay (astacin assay, Suc-Ala-Ala-Ala-pNA substrate)", "assay_type": "biochemical", "conditions": "T. circumcincta enzyme; species not given; read-out: IC50 rDPY-31 (in vitro absorbance assay)", "text": "(§1) In total, 104 compounds were screened against recombinant DPY-31 from both the human parasite B. malayi as well as the sheep GI parasite T. circumcincta using an absorbance assay.[(i)], [10] […] This may be due to the extremely slow binding kinetics of these inhibitors.[17]\n(§2) The 684bp and 675bp sequences encoding the astacin domains of T. circumcincta DPY-31, and B. malayi DPY-31, were codon-optimised for E. coli by GeneArt (Life Technologies), and cloned into vector pMA-T. These plasmids were then inserted into the pET28a(+) vector, expression of the encoded proteins was induced and the resulting proteins were purified following the methods described previously. Zinc metalloprotease assays were performed to determine the activity of the recombinant DPY-31 proteins from these nematode species, using the previously described method.^18\n(§3) An astacin assay was performed to determine the inhibitory activity of all compounds against recombinant DPY-31 from the two nematode species. Briefly, 150 µg/ml of recombinant enzyme was incubated with 0.1 mM ZnCl2 and various concentrations (5 µM to 400 µM) of compound, and the volume was made up to a total of 100 µl with 50 mM NaPO4, pH 8.0 buffer. […] Absorbance was measured on a plate reader at 405 nm. […]"}, "[2]": {"target": "T2, recombinant DPY-31 from B. malayi (Brugia malayi, UniProt A8Q2D1)", "T2 construct": "made in house; host or cells: E. coli (inferred from the codon optimisation and the pET28a(+) vector)", "T2 sequence (A8Q2D1 211-410)": "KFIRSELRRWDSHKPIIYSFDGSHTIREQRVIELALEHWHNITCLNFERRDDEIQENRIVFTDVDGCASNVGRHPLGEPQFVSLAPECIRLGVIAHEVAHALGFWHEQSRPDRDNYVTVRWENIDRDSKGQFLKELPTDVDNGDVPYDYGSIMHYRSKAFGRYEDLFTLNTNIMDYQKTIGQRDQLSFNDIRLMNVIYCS", "test": "rDPY-31 absorbance assay (astacin assay, Suc-Ala-Ala-Ala-pNA substrate)", "assay_type": "biochemical", "conditions": "±standard error; 3 h pre-incubation, 37 °C, pH 8.0; read-out: pIC50 rDPY-31 B. malayi (converted)", "text": "as §1, §2, §3"}, "[3]": {"system": "T. circumcincta dpy-31 transgenically-rescued C. elegans dpy-31 mutant TP224", "test": "Phenotypic screening against transgenic rescue strain TP224", "assay_type": "in vivo, Caenorhabditis elegans", "conditions": "for phenotype induced: TP224, 96 well plate, 3 days, 50 μM to 2 mM", "protocol": "(§4) These compounds were tested against three strains: free-living wild-type C. elegans N2, the T. circumcincta dpy-31 transgenically-rescued C. elegans dpy-31 mutant TP224, and parasitic T. circumcincta (Fig. 4). Phenotypes were evaluated in 96 well plate format over the course of 3 days using concentrations ranging from 50 μM to 2 mM. […] The similarity of these effects between wild-type C. elegans, the mutant strain, and T. circumcincta reinforces the conserved nature of this metalloprotease.\nCompounds 8 and 9 were screened against C. elegans N2 or TP224 L4s at 100, 250 and 1000 µM, using 96-well plates. A single L4 was placed into each of the wells in a total volume of 100 µl, made up of compound, M9 buffer and 5 µl 10x concentrated OP50. The compound concentrations were tested in duplicate for each compound. The plates were sealed with gas-permeable covers and incubated at 20 °C for 3 days, with the effects on the phenotypes recorded daily. Representative worm images were taken as described in section 5.1."}, "[4]": {"system": "free-living wild-type C. elegans N2", "test": "Phenotypic screening against C. elegans N2 larvae", "assay_type": "in vivo, Caenorhabditis elegans", "conditions": "for phenotype induced: C. elegans N2, 96 well plate, 3 days, 50 μM to 2 mM", "protocol": "as §4\nCompounds 8 and 9 were screened against C. elegans N2 L4s using 96-well plates. A single L4 was placed into each well in a total volume of 100 µL, made up of compound, M9 buffer and 5 µl 10x concentrated food (E. coli strain OP50), and incubated at 20 °C for 3 days, with the effects on the phenotypes recorded daily. The compounds were screened in duplicate at concentrations ranging from 50 µM to 2 mM. Actinonin (100 µM) was used as a positive control.^18 Representative offspring were transferred onto 2% agarose/0.01% azide pads on slides and viewed with a Zeiss Axioskop2 microscope. Images were taken using an AxioCam camera and Axiovision software."}, "[5]": {"system": "parasitic T. circumcincta", "test": "Phenotypic screening against T. circumcincta L1s and L3s", "assay_type": "in vivo, Teladorsagia circumcincta", "conditions": "for phenotype induced: T. circumcincta, 96 well plate, 50 μM to 2 mM", "protocol": "as §4\nT. circumcincta L1s or exsheathed L3s were incubated with compounds 8 and 9 at 100, 500 and 1000 µM. 10-20 L1s were incubated per well of a 96-well plate, each well containing compound, 5 µl 10x concentrated OP50 and EBSS (Earle’s Balanced Salt Solution; Life Technologies) to 100 µl, and 10-20 L3s were incubated per well of a 96-well plate, each well containing compound and EBSS to 100 µl. Each compound was tested in duplicate for all concentrations. The plates were sealed with gas-permeable covers and incubated at 26 °C (L1s) or 40 °C (L3s) at 100 rpm for 7-8 days and any observations on development were recorded. Representative worm images were taken as described in section 5.1."}}, "note": "Where a SMILES comes first, the peptide text is derived from it.", "data": [{"smiles": "COC(=O)C1CCCN1C(=O)C(C)CP(=O)(O)C(Cc1ccccc1)NC(=O)C(CCCCN)NC(=O)C1CCCN1C(=O)OCc1ccccc1", "note": "(stereo not drawn) [Compound 1]", "values": [{"measurement": "inhibition of crayfish astacin", "setting": "crayfish astacin", "value": "mid-μM inhibitor"}, {"measurement": "IC50", "setting": "[1]", "value": "> 500", "unit": "µM"}]}, {"smiles": "CNC(=O)[C@@H](NC(=O)[C@H](CC(C)C)[C@H](O)C(=O)NO)C(C)(C)C", "note": "[Compound 3, marimastat]", "values": [{"measurement": "IC50", "setting": "[2]", "value": 200, "unit": "µM"}]}, {"smiles": "C[C@H](NC(=O)[C@@H]1CCCN1C(=O)OC(C)(C)C)C(=O)N[C@@H](Cc1ccccc1)C(=O)NO", "note": "[Compound 8] (HELM PEPTIDE1{[CC(C)(C)OC(=O)[*:2]].P.A.F.[ON[*:1]]}$$$$V2.0)", "values": [{"measurement": "phenotype observed (Figure 4d)", "setting": "[3]; L1 TP224, 100 μM", "value": "Dpy L1 phenotype"}, {"measurement": "phenotype induced", "setting": "[3]", "value": "induce the Dpy phenotype"}, {"measurement": "phenotype induced", "setting": "[4]", "value": "induce the Dpy phenotype"}, {"measurement": "phenotype observed (Figure 4b)", "setting": "[4]; L1 C. elegans (N2), 50 μM", "value": "Dpy phenotype"}, {"measurement": "phenotype induced", "setting": "[5]", "value": "induce the Dpy phenotype"}]}, {"smiles": "C[C@H](NC(=O)[C@@H]1CCCN1C(=O)OCC1c2ccccc2-c2ccccc21)C(=O)N[C@@H](Cc1ccccc1)C(=O)NO", "note": "[Compound 9] (HELM PEPTIDE1{[O=C(OCC1c2ccccc2-c2ccccc21)[*:2]].P.A.F.[ON[*:1]]}$$$$V2.0)", "values": [{"measurement": "phenotype induced", "setting": "[3]", "value": "induce the Dpy phenotype"}, {"measurement": "phenotype induced", "setting": "[4]", "value": "induce the Dpy phenotype"}, {"measurement": "phenotype observed (Figure 4f)", "setting": "[5]; T. circumcincta L3, 500 μM", "value": "Dpy phenotype"}, {"measurement": "phenotype induced", "setting": "[5]", "value": "induce the Dpy phenotype"}]}]}
